Results reported in ChEMBL document CHEMBL1149799, “Bioactive peroxides as potential therapeutic agents” (Eur J Med Chem, 2008).
≈ marks a conversion by molar mass, not a printed value.

How the values were obtained:
MDA-MB-435 = test: Cytotoxicity against human MDA-MB-435 cells; format: functional
[1] = Cytotoxicity against human RES MDA-MB-231/ATCC cells; format: functional
OVCAR-8 = test: Cytotoxicity against human OVCAR8 cells; format: functional, cell-based
SF-295 = test: Cytotoxicity against human SF295 cells; format: functional, cell-based
OVCAR-5 = test: Cytotoxicity against human OVCAR5 cells; format: functional, cell-based
EKVX = test: Cytotoxicity against human EKVX cells; format: functional
UACC-257 = test: Cytotoxicity against human UACC257 cells; format: functional
IGROV-1 = test: Cytotoxicity against human IGROV1 cells; format: functional
HOP-92 = test: Cytotoxicity against human HOP92 cells; format: functional
DU-145 = test: Cytotoxicity against human DU145 cells; format: functional, cell-based; settings: Homo sapiens, DU-145
HCT-15 = test: Cytotoxicity against human HCT15 cells; format: functional, cell-based
BT-549 = test: Cytotoxicity against human BT-549 cells; format: functional
PC-3 = test: Cytotoxicity against human PC3 cells; format: functional, cell-based; settings: Homo sapiens, PC-3
[2] = Cytotoxicity against mouse Ehrlich Ascites carcinoma by clonogenic assay; format: functional
HCC 2998 = test: Cytotoxicity against human HCC2998 cells; format: functional, cell-based
UO-31 = test: Cytotoxicity against human UO31 cells; format: functional
COLO 205 = test: Cytotoxicity against human COLO205 cells
A549 = test: Cytotoxicity against human A549 cells; format: functional, cell-based; settings: Homo sapiens, A549
SNB-19 = test: Cytotoxicity against human SNB19 cells; format: functional
LOX IMVI = test: Cytotoxicity against human LOXI MVI cells; format: functional, cell-based
T47D = test: Cytotoxicity against human T47D cells; format: functional
RXF 393 = test: Cytotoxicity against human RXF393 cells; format: functional
U-251 = test: Cytotoxicity against human U251 cells; format: functional, cell-based
SK-MEL-28 = test: Cytotoxicity against human SK-MEL-28 cells; format: functional
A498 = test: Cytotoxicity against human A498 cells; format: functional
[3] = Cytotoxicity against human MCF7/ADR-RES cells; format: functional; settings: NCI/ADR-RES
SK-MEL-5 = test: Cytotoxicity against human SK-MEL-5 cells; format: functional
KM12 = test: Cytotoxicity against human KM12 cells; format: functional, cell-based
SK-OV-3 = test: Cytotoxicity against human SK-OV-3 cells; format: functional, cell-based
ACHN = test: Cytotoxicity against human ACHN cells; format: functional, cell-based
OVCAR-4 = test: Cytotoxicity against human OVCAR4 cells; format: functional, cell-based
MOLT-4 = test: Cytotoxicity against human MOLT4 cells
CAKI-1 = test: Cytotoxicity against human CAKI1 cells; format: functional
[4] = Cytotoxicity against human CCRF-GEM cells; format: functional
NCI-H322M = test: Cytotoxicity against human NCI-H322M cells; format: functional
SK-MEL-2 = test: Cytotoxicity against human SK-MEL-2 cells; format: functional
[5] = Cytotoxicity against mouse Ehrlich Ascites carcinoma by […] assay; format: functional
NCI-H460 = test: Cytotoxicity against human NCI-H460 cells; format: functional, cell-based; settings: Homo sapiens, NCI-H460
MDA-N = test: Cytotoxicity against human MDA-N cells; format: functional
[6] = Cytotoxicity against human CFUGM; format: functional; settings: CFU-GM
NCI-H23 = test: Cytotoxicity against human NCI-H23 cells; format: functional, cell-based
UACC-62 = test: Cytotoxicity against human UACC62 cells; format: functional
TK-10 = test: Cytotoxicity against human TK10 cells; format: functional
MCF7 = test: Cytotoxicity against human MCF7 cells; format: functional, cell-based; settings: Homo sapiens, MCF7
SN12C = test: Cytotoxicity against human SN12C cells; format: functional
[7] = Cytotoxicity against human HB60 cells; format: functional
OVCAR-3 = test: Cytotoxicity against human OVCAR-3 cells; format: functional, cell-based
SW-620 = test: Cytotoxicity against human SW620 cells; format: functional
SNB-75 = test: Cytotoxicity against human SNB75 cells; format: functional, cell-based
[8] = Cytotoxicity against human RPMI8266 cells; format: functional
[9] = Cytotoxicity against human K652 cells; format: functional
HCT-116 = test: Cytotoxicity against human HCT116 cells; format: functional, cell-based
HT-29 [10] = test: (§1) Cytotoxicity against human HT29 cells; format: functional
HOP-62 = test: Cytotoxicity against human HOP62 cells; format: functional
786-0 = test: Cytotoxicity against human renal 7860 cells by soft agar assay; format: functional
[11] = Cytotoxicity against human Hepa59T/VGH cells; format: functional; settings: HEPA 59T/VGH, read-out: ED50 (the source's name)
[12] = Cytotoxicity against human MKN1 cells; format: functional, cell-based; settings: MKN-1
HT-29 [13] = test: as §1; format: functional, cell-based; settings: Homo sapiens, HT-29
NCI-H522 = test: Cytotoxicity against human NCI-H522 cells; format: functional, cell-based
St-4 = test: Cytotoxicity against human ST4 cells; format: functional, cell-based
SF-539 = test: Cytotoxicity against human SF539 cells; format: functional, cell-based
NCI-H226 = test: Cytotoxicity against human NCI-H226 cells; format: functional, cell-based
[14] = Cytotoxicity against human RXF63IL cells; format: functional, cell-based
MKN-7 = test: Cytotoxicity against human MKN7 cells; format: functional, cell-based
MDA-MB-231 = test: Cytotoxicity against human MDA-MB-231 cells; format: functional, cell-based
[15] = Cytotoxicity against human BSY1 cells; format: functional, cell-based; settings: BSY-1
[16] = Cytotoxicity against human HBC4 cells; format: functional, cell-based
MKN-28 = test: Cytotoxicity against human MKN28 cells; format: functional, cell-based
[17] = Cytotoxicity against human HBC5 cells; format: functional, cell-based
DMS-273 = test: Cytotoxicity against human DMS273 cells; format: functional, cell-based
MKN-74 = test: Cytotoxicity against human MKN74 cells; format: functional, cell-based
DMS-114 = test: Cytotoxicity against human DMS114 cells; format: functional, cell-based
SNB-78 = test: Cytotoxicity against human SNB78 cells; format: functional, cell-based
SF-268 = test: Cytotoxicity against human SF268 cells; format: functional, cell-based; settings: Homo sapiens, SF-268; read-out: IC50
MKN-45 = test: Cytotoxicity against human MKN45 cells; format: functional, cell-based

C[C@H]1[C@H](O[C@@H]2O[C@@H]3O[C@]4(C)CC[C@H]5[C@H](C)CC[C@@H]([C@H]2C)[C@@]35OO4)O[C@@H]2O[C@]3(C)CC[C@H]4[C@H](C)CC[C@@H]1[C@@]24OO3
GI50 (MDA-MB-435): 61 nM | GI50 [1]: 400 nM | GI50 (OVCAR-8): 90 nM | GI50 (SF-295): 590 nM | GI50 (OVCAR-5): 390 nM | GI50 (EKVX): 76 nM | GI50 (UACC-257): 93 nM | GI50 (IGROV-1): 1050 nM | GI50 (HOP-92): 121 nM | GI50 (DU-145; read-out: GI50): 5100 nM | GI50 (HCT-15): 24 nM | GI50 (BT-549): 58 nM | GI50 (PC-3): 15 nM | IC50 [2]: 55600 nM | GI50 (HCC 2998): 450 nM | GI50 (UO-31): 63 nM | GI50 (COLO 205): 44 nM | GI50 (A549): 98 nM | GI50 (SNB-19): 1710 nM | GI50 (LOX IMVI): 30 nM | GI50 (T47D): 30 nM | GI50 (RXF 393): 470 nM | GI50 (U-251): 65 nM | GI50 (SK-MEL-28): 12300 nM | GI50 (A498): 11600 nM | GI50 [3]: 220 nM | GI50 (SK-MEL-5): 53 nM | GI50 (KM12): 33 nM | GI50 (SK-OV-3): 480 nM | GI50 (ACHN): 100 nM | GI50 (OVCAR-4): 290 nM | GI50 (MOLT-4): 57 nM | GI50 (CAKI-1): 280 nM | GI50 [4]: 45 nM | GI50 (NCI-H322M): 10800 nM | GI50 (SK-MEL-2): 500 nM | IC50 [5]: 3600 nM | GI50 (NCI-H460; read-out: GI50): 68 nM | GI50 (MDA-N): 590 nM | IC50 [6]: 3600 nM | GI50 (NCI-H23): 46 nM | GI50 (UACC-62): 81 nM | GI50 (TK-10): 240 nM | GI50 (MCF7; read-out: GI50): 110 nM | GI50 (SN12C): 280 nM | GI50 [7]: 28 nM | GI50 (OVCAR-3): 460 nM | GI50 (SW-620): 43 nM | GI50 (SNB-75): 220 nM | GI50 [8]: 13 nM | GI50 [9]: 68 nM | GI50 (HCT-116): 19 nM | GI50 (HT-29 [10]): 50 nM | GI50 (HOP-62): 10200 nM | GI50 (786-0): 370 nM

CC(C)[C@]12C=C3[C@](C)(O)CC[C@]3(OO1)[C@@H](C)CC2 [PEROXYGIBBEROL]
EC50 [11]: 8.2 µg/mL (≈ 32.5 µM)

C=C(C)[C@@H](C)/C=C/[C@@H](C)[C@H]1CC[C@@H]2[C@]1(C)CC=C1[C@]23C=C[C@]2(C[C@@H](O)CC[C@]12C)OO3
IC50 [12]: 0.42 µg/mL (≈ 0.989 µM) | IC50 (HT-29 [13]): 0.57 µg/mL (≈ 1.34 µM) | IC50 (OVCAR-8): 0.22 µg/mL (≈ 0.518 µM) | IC50 (SF-295): 0.75 µg/mL (≈ 1.77 µM) | IC50 (OVCAR-5): 0.54 µg/mL (≈ 1.27 µM) | IC50 (NCI-H522): 0.57 µg/mL (≈ 1.34 µM) | IC50 (St-4): 0.69 µg/mL (≈ 1.62 µM) | IC50 (SF-539): 0.84 µg/mL (≈ 1.98 µM) | IC50 (DU-145): 0.54 µg/mL (≈ 1.27 µM) | IC50 (HCT-15): 0.75 µg/mL (≈ 1.77 µM) | IC50 (NCI-H226): 0.63 µg/mL (≈ 1.48 µM) | IC50 (PC-3): 0.57 µg/mL (≈ 1.34 µM) | IC50 [14]: 0.72 µg/mL (≈ 1.7 µM) | IC50 (MKN-7): 0.48 µg/mL (≈ 1.13 µM) | IC50 (HCC 2998): 0.57 µg/mL (≈ 1.34 µM) | IC50 (A549): 0.96 µg/mL (≈ 2.26 µM) | IC50 (LOX IMVI): 0.6 µg/mL (≈ 1.41 µM) | IC50 (U-251): 0.63 µg/mL (≈ 1.48 µM) | IC50 (MDA-MB-231): 1.26 µg/mL (≈ 2.97 µM) | IC50 (KM12): 0.6 µg/mL (≈ 1.41 µM) | IC50 (SK-OV-3): 0.81 µg/mL (≈ 1.91 µM) | IC50 (ACHN): 0.51 µg/mL (≈ 1.2 µM) | IC50 (OVCAR-4): 0.6 µg/mL (≈ 1.41 µM) | IC50 [15]: 0.6 µg/mL (≈ 1.41 µM) | IC50 [16]: 0.85 µg/mL (≈ 2 µM) | IC50 (NCI-H460): 0.61 µg/mL (≈ 1.44 µM) | IC50 (NCI-H23): 0.54 µg/mL (≈ 1.27 µM) | IC50 (MKN-28): 0.84 µg/mL (≈ 1.98 µM) | IC50 [17]: 0.96 µg/mL (≈ 2.26 µM) | IC50 (DMS-273): 0.54 µg/mL (≈ 1.27 µM) | IC50 (MCF7): 0.36 µg/mL (≈ 0.848 µM) | IC50 (MKN-74): 0.54 µg/mL (≈ 1.27 µM) | IC50 (DMS-114): 0.48 µg/mL (≈ 1.13 µM) | IC50 (SNB-78): 1.17 µg/mL (≈ 2.76 µM) | IC50 (OVCAR-3): 0.19 µg/mL (≈ 0.447 µM) | IC50 (SF-268): 1.02 µg/mL (≈ 2.4 µM) | IC50 (SNB-75): 2.16 µg/mL (≈ 5.09 µM) | IC50 (MKN-45): 0.54 µg/mL (≈ 1.27 µM) | IC50 (HCT-116): 0.48 µg/mL (≈ 1.13 µM)
